Data published in patent publication US20210353585A1, “METHODS AND COMPOSITIONS FOR TREATING LAMINOPATHIES AFFECTING SKELETAL OR CARDIAC MUSCLE” (CORNELL UNIVERSITY, priority 2018, published 2021).

How the values were obtained:
Lmna WT myofibers [1] = test: Cell viability MTT assay, Lmna WT; format: cell-based, mouse; details: wild-type myofibers; phleomycin 20 μg/ml pulses combined with NU7441 (2 μM) and/or KU55933 (2 μM); comparable to untreated Lmna KO
Description: (§1) Pharmacological treatments. For preliminary experiments, myoblasts were differentiated using the standard protocol and treated with pharmacological treatments starting at day 5 of differentiation. For chromatin protrusion studies, paclitaxel was administered to differentiated myotubes in two 24 hours bursts at day 4 and day 6-post differentiation with a 24 hour recovery in between. Myotubes were then fixed in 4% PFA at day 7 and stained with anti-lamin B and DAPI in order to quantify the percentage of myonuclei with chromatin protrusions. For long term studies using the cGAS reporter, myotubes were treated with 10 nM of paclitaxel starting at day 5 and then media was refreshed every day. […] For DNA damage induction and inhibitor experiments, cells were treated with 20 μg/ml of phleomycin for a two-hour pulse on Day 3, 4, and 5 of differentiation. Concurrently, cells were treated with NU7441 (2 μM), KU55933 (2 μM) starting at day 2 of differentiation through day 10 of differentiation. For induction of DN-KASH and DN-KASHext, cells were treated with 1 μM doxycycline.
(§2) MTT assay. Myoblasts, seeded in a 96-well plate and differentiated as previously described for 0, 5, or 10 days, were assayed for cell viability according to the manufacturer's instructions (Promega, CellTiter 96 Non-Radioactive Cell Proliferation Assay). Fresh differentiation media was added two hours prior to the addition of 15 μL MTT 3-(4,5-dimethylthiazol-2-yl)-2,5-diphenyltetrazolium bromide dye. After incubation for 3 hours in MTT dye, 100 uL of Stop Solution was added to solubilize the formazan product (appears purple). Following overnight incubation at 37° C. and 5% CO2, the absorbance of each well (measured at 590 nm) was analyzed using a microplate reader.

Lmna KO myofibers [2] = test: Cell viability MTT assay, Lmna KO; format: cell-based, mouse; details: phleomycin alone or in combination with NU7441 and/or KU55933
Description: as §1, §2

Lmna WT myofibers [3] = test: DNA damage by γH2AX foci per nucleus, Lmna WT; format: cell-based, mouse; details: for DNA damage (γH2AX foci per nucleus): Lmna WT cells, phleomycin with DNA-PK+ATM inhibition vs phleomycin alone; for DNA damage (γH2AX foci): wild-type myofibers, phleomycin 20 μg/ml pulses combined with NU7441 (2 μM) and/or KU55933 (2 μM), comparable to untreated Lmna KO
Description: as §1
Immunofluorescence staining of mouse cells and tissues. Cells were fixed in pre-warmed 4% PFA at the appropriate time point(s) and washed with PBS. Cells were blocked and permeabilized with a solution of 3% BSA, 0.1% Triton-X 100 and 0.1% Tween (Sigma) for 1 hour at room temperature. Cells were stained with primary antibodies diluted in blocking solution according to Table 4 at 4° C. overnight. Samples were washed with PBS and incubated for 1 hour at room temperature with 1:250 dilution of AlexaFluor antibodies (Invitrogen) and 1:1000 DAPI (Sigma). Single muscle fibers were stained using the same procedure in Eppendorf tube baskets with an increase in blocking solution Triton-X concentration to 0.25%.
Image analysis. Image sequences were analyzed using ZEN (Zeiss), ImageJ, or MATLAB (Mathworks) using only linear adjustments uniformly applied to the entire image region. Region of interest intensities were extracted using ZEN or ImageJ. To quantify cleaved caspase-3 (i.e. active) area and myofiber health, maximum intensity protections were generated, which were then blinded to the observer. Cleaved caspase-3 area was calculated by thresholding of the caspase-3 and myosin heavy chain fluorescent signal and expressing the cleaved caspase-3 signal relative to the myosin heavy chain signal. Myofiber contractions were scored based on a minimum of 6 random fields of view per replicate using a blinded analysis according to the scales provided in FIGS. 4A-4B. […] Protrusions lengths were both counted and measured by the presence of DAPI signal beyond the lamin B rim of the nucleus. Aspect ratio was quantified based on a thresholded lamin B rim to avoid the confounding factor of the DNA protrusions outside the body of the nucleus. Nuclear rupture was detected by an increase of the cytoplasmic NLS-GFP signal, or the localization of cGAS-mCherry to the nucleus. For better visualization of NLS-GFP cells many of the fluorescent single color image sequences were inverted. […] DNA damage was determined by counting H2AX foci and then binned based on foci number. If damage was so severe that individual foci could not be counted, these nuclei were placed in the >25 foci category. For Hsp90 quantification, average nuclear Hsp90 fluorescence intensity was determined from a single mid-nucleus z-plane image and normalized to the cytoplasmic intensity at two points immediately adjacent to the nucleus.

Lmna KO myofibers [4] = test: Quantification of myonuclei with chromatin protrusions; format: cell-based, mouse; details: paclitaxel 50 nM starting day 4, read day 7, vs DMSO
Description: Pharmacological treatments. For preliminary experiments, myoblasts were differentiated using the standard protocol and treated with pharmacological treatments starting at day 5 of differentiation. For chromatin protrusion studies, paclitaxel was administered to differentiated myotubes in two 24 hours bursts at day 4 and day 6-post differentiation with a 24 hour recovery in between. Myotubes were then fixed in 4% PFA at day 7 and stained with anti-lamin B and DAPI in order to quantify the percentage of myonuclei with chromatin protrusions. For long term studies using the cGAS reporter, myotubes were treated with 10 nM of paclitaxel starting at day 5 and then media was refreshed every day. […]
Image analysis. Image sequences were analyzed using ZEN (Zeiss), ImageJ, or MATLAB (Mathworks) using only linear adjustments uniformly applied to the entire image region. […] To quantify cleaved caspase-3 (i.e. active) area and myofiber health, maximum intensity protections were generated, which were then blinded to the observer. Cleaved caspase-3 area was calculated by thresholding of the caspase-3 and myosin heavy chain fluorescent signal and expressing the cleaved caspase-3 signal relative to the myosin heavy chain signal. Myofiber contractions were scored based on a minimum of 6 random fields of view per replicate using a blinded analysis according to the scales provided in FIGS. 4A-4B. […]

Lmna KO myofibers [5] = test: Nuclear envelope rupture, cGAS-mCherry reporter foci; format: cell-based, mouse; details: paclitaxel 10 nM starting day 5, vs DMSO
Description: Each of the mutant myoblast lines were stably modified with lentiviral vectors to express the nuclear rupture reporter NLS-GFP (pCDH-CMV-NLS-copGFP-EF1-blastiS) and cGAS-mCherry (pCDH-CMV-eGAs^E225A/D227A-mCherry2-EF1-blastiS). cGAS is a cytosolic DNA binding protein; a cGAS mutant (E225A/D227A) with abolished enzyme activity and interferon production, but that still binds DNA (Civril et al., “Structural Mechanism of Cytosolic DNA Sensing by cGAS,” Nature 498:332-337 (2013), which is hereby incorporated by reference in its entirety) and serves as a nuclear envelope rupture reporter (Denais et al., “Nuclear Envelope Rupture and Repair During Cancer Cell Migration,” Science 352:353-358 (2016), which is hereby incorporated by reference in its entirety) was used.
Extended imaging using incubator microscope. […] Resulting images were analyzed using the Incucyte software, which performs fluorescence background subtraction using a top hat method and then subsequent thresholding. cGAS-mCherry cells were thresholded and then analyzed for increase in fluorescent foci over time to track the rate of increase in nuclear envelope rupture or damage. […]

Lmna KO myofibers [6] = test: Microharpoon assay of nuclear deformation; format: cell-based, mouse; details: Lmna KO myotubes, 50 nM paclitaxel for 24 hours vs DMSO
Description: For the microharpoon studies, myoblasts were seeded in 35 mm glass bottom dishes and differentiated as previously described, except without the addition of a Matrigel top coat to allow microharpoon access. A Sutter P-97 micropipette puller was used to create microharpoons from borosilicate glass rods (Sutter; OD: 1.0 mm, ID: 0.78, 10 cm length) with tip diameters of ≈1 μm. Day 4 myotubes (Lmna KO and wild-type) were treated for 24 hours with either 50 nM Paclitaxel or the corresponding 0.1% DMSO. The following day, the microharpoon assay was performed as described in Fedorchak et al., “Cell Microharpooning to Study Nucleo-Cytoskeletal Coupling,” Methods Mol. Biol. 1411:241-254 (2016), which is hereby incorproated by reference in its entirety, with slight modifications to the pull parameters to accommodate myotubes. The microharpoon was inserted ≈5-7 μm from the edge of the nucleus and pulled 15 μm at a rate of 1 μm/s. Pull direction was always orthogonal to the long axis of the myofiber. Images were acquired at 40× (+1.6×) every 5 seconds. Nuclear strain and centroid displacement were calculated using a custom-written MATLAB program. […]

Lmna H222P mice = details: Macquart et al. 2018; cited from earlier work
chick cardiac tissue = details: Cho et al. 2019; cited from earlier work

Compound: O=c1cc(N2CCOCC2)oc2c(-c3cccc4c3sc3ccccc34)cccc12 [NU7441]
- myofiber viability (MTT) (Lmna WT myofibers [1]): loss of viability
- myofiber viability (MTT) (Lmna KO myofibers [2]): did not further reduce viability
- DNA damage (γH2AX foci per nucleus) (Lmna WT myofibers [3]): significant increase in DNA damage
- DNA damage (γH2AX foci) (Lmna WT myofibers [3]): accumulation of DNA damage

Compound: phleomycin
- myofiber viability (MTT) (Lmna WT myofibers [1]): loss of viability
- myofiber viability (MTT) (Lmna KO myofibers [2]): did not further reduce viability
- DNA damage (γH2AX foci) (Lmna WT myofibers [3]): accumulation of DNA damage

Compound: O=c1cc(-c2cccc3c2Sc2ccccc2S3)oc(N2CCOCC2)c1 [KU55933]
- myofiber viability (MTT) (Lmna WT myofibers [1]): loss of viability
- myofiber viability (MTT) (Lmna KO myofibers [2]): did not further reduce viability
- DNA damage (γH2AX foci per nucleus) (Lmna WT myofibers [3]): significant increase in DNA damage
- DNA damage (γH2AX foci) (Lmna WT myofibers [3]): accumulation of DNA damage

Compound: CC(=O)O[C@H]1C(=O)[C@@]2(C)[C@H]([C@H](OC(=O)c3ccccc3)[C@]3(O)C[C@H](OC(=O)[C@H](O)[C@@H](NC(=O)c4ccccc4)c4ccccc4)C(C)=C1C3(C)C)[C@]1(OC(C)=O)CO[C@@H]1C[C@@H]2O [paclitaxel]
- percentage of nuclei with chromatin protrusions (Lmna KO myofibers [4]): significantly reduced the percentage of nuclei with chromatin protrusions
- incidence of nuclear envelope rupture (cGAS-mCherry foci) (Lmna KO myofibers [5]): significantly reduced
- nuclear deformation in response to cytoplasmic force application (nuclear strain) (Lmna KO myofibers [6]): significantly reduced nuclear deformation
- cardiac conduction defects (Lmna H222P mice): improve cardiac conduction defects

Compound: Cc1ccc2c(c1)C(=O)C1(O)CCN(c3ccccc3)C1=N2 (stereo not shown) [blebbistatin]
- nuclear envelope rupture (chick cardiac tissue): rescued
